Assay results reported in PubChem BioAssay (NCI).
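Compound exposure: 48 hours, 5 concentrations, 96-well plates. TGI marks complete inhibition of growth.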 Where a SMILES comes first, the peptide text is derived from it. [ ]: non-standard residue; d: D form. The star is where a group is joined. Bn2Val = CC(C)[C@@H](C(=O)*)N(Cc1ccccc1)Cc1ccccc1; NMeV = CN[C@H](C(=O)O)C(C)C; X29 = COc1ccc(CN*)c(OC)c1; dNMeA = CN[C@H](C)C(=O)O; Boc = CC(C)(C)OC(=O)*; OBn = c1ccc(CO*)cc1

What was measured:
Assay in all cases: growth of human tumour cells (NCI), 48 h
HCC-2998 colon = system: HCC-2998 colon
HCT-116 colon = system: HCT-116 colon
MALME-3M melanoma = system: MALME-3M melanoma
NCI-H460 lung = system: NCI-H460 lung
NCI-H522 lung = system: NCI-H522 lung
OVCAR-3 ovarian = system: OVCAR-3 ovarian
OVCAR-8 ovarian = system: OVCAR-8 ovarian
RXF 393 renal = system: RXF 393 renal
SNB-75 CNS = system: SNB-75 CNS
T-47D breast = system: T-47D breast

`Cc1cccc2nc3c(=O)[nH]c(=O)nc-3n(C)c12` showed a TGI (HCC-2998 colon) of over 100 µM, a TGI (HCT-116 colon) of over 100 µM and a TGI (MALME-3M melanoma) of 38.5 µM. It also gave a TGI (NCI-H460 lung) of over 100 µM, a TGI (NCI-H522 lung) of 87.4 µM and a TGI (OVCAR-3 ovarian) of over 100 µM. It also gave a TGI (OVCAR-8 ovarian) of over 100 µM, a TGI (RXF 393 renal) of over 100 µM and a TGI (SNB-75 CNS) of over 100 µM. The TGI (T-47D breast) was over 100 µM.

With `COc1ccc(CNC(=O)[C@@H]2CCCN2C(=O)[C@@H](C)N(C)C(=O)[C@H](C(C)C)N(C)C(=O)[C@@H](NC(=O)[C@H](C(C)C)N(Cc2ccccc2)Cc2ccccc2)C(C)C)c(OC)c1` (Bn2Val-V[NMeV][dNMeA]P-X29) the TGI (HCC-2998 colon) was 8.39 µM, the TGI (HCT-116 colon) was 9.62 µM and the TGI (MALME-3M melanoma) was 36.7 µM. For the same compound, the TGI (NCI-H460 lung) was 15.5 µM, the TGI (NCI-H522 lung) was 24.2 µM and the TGI (OVCAR-3 ovarian) was 14.7 µM. For the same compound, the TGI (OVCAR-8 ovarian) was 57.6 µM, the TGI (RXF 393 renal) was 3.94 µM and the TGI (SNB-75 CNS) was 7.26 µM. The TGI (T-47D breast) was 96 µM.

`CC(C)(C)CC(C)(C)NC(=S)NO` gave a TGI (HCC-2998 colon) of over 100 µM, a TGI (HCT-116 colon) of over 100 µM and a TGI (MALME-3M melanoma) of over 100 µM. It also gave a TGI (NCI-H460 lung) of over 100 µM, a TGI (NCI-H522 lung) of over 100 µM and a TGI (OVCAR-3 ovarian) of over 100 µM. The TGI (OVCAR-8 ovarian) was over 100 µM, the TGI (RXF 393 renal) was over 100 µM and the TGI (SNB-75 CNS) was over 100 µM. It also gave a TGI (T-47D breast) of over 100 µM.

`Cc1ccc(-n2cc(-c3ccc(Cl)cc3)c3c(NN)ncnc32)cc1` showed a TGI (HCC-2998 colon) of 22.2 µM, a TGI (HCT-116 colon) of 9.1 µM and a TGI (MALME-3M melanoma) of 21.5 µM. It also gave a TGI (NCI-H460 lung) of 14.1 µM, a TGI (NCI-H522 lung) of 15.8 µM and a TGI (OVCAR-3 ovarian) of 12.8 µM. For the same compound, the TGI (OVCAR-8 ovarian) was 7.02 µM, the TGI (RXF 393 renal) was 7.31 µM and the TGI (SNB-75 CNS) was 7.6 µM. For the same compound, the TGI (T-47D breast) was 26.6 µM.

`COC(=O)c1c(C)cccc1C1CN=NC12Cc1ccc(C)c(C)c1C2=O` (stereo not given) showed a TGI (HCC-2998 colon) of 90.6 µM, a TGI (HCT-116 colon) of 45.6 µM and a TGI (MALME-3M melanoma) of over 100 µM. The TGI (NCI-H460 lung) was over 100 µM, the TGI (NCI-H522 lung) was 75.4 µM and the TGI (OVCAR-3 ovarian) was over 100 µM. For the same compound, the TGI (OVCAR-8 ovarian) was over 100 µM, the TGI (RXF 393 renal) was over 100 µM and the TGI (SNB-75 CNS) was over 100 µM. It also gave a TGI (T-47D breast) of 13.1 µM.

`Cc1nc2n(c1/C=C1/C(=O)Nc3ccccc31)CCS2` was tested, and the TGI (HCC-2998 colon) was 61.9 µM, the TGI (HCT-116 colon) was over 100 µM and the TGI (MALME-3M melanoma) was over 100 µM. The TGI (NCI-H460 lung) was over 100 µM, the TGI (NCI-H522 lung) was over 100 µM and the TGI (OVCAR-3 ovarian) was over 100 µM. The TGI (OVCAR-8 ovarian) was over 100 µM, the TGI (RXF 393 renal) was 71.3 µM and the TGI (SNB-75 CNS) was 87 µM. The TGI (T-47D breast) was over 100 µM.

`Cc1ccc(NC2=NCCO2)c2c1CCC2` was tested, and the TGI (HCC-2998 colon) was 74.6 µM, the TGI (HCT-116 colon) was 80 µM and the TGI (MALME-3M melanoma) was 92.4 µM. For the same compound, the TGI (NCI-H460 lung) was over 100 µM, the TGI (NCI-H522 lung) was over 100 µM and the TGI (OVCAR-3 ovarian) was 67.9 µM. The TGI (OVCAR-8 ovarian) was over 100 µM, the TGI (RXF 393 renal) was over 100 µM and the TGI (SNB-75 CNS) was 84.5 µM. It also gave a TGI (T-47D breast) of over 100 µM.

`Nc1nccc(NCC2(CO)CCC2)n1` showed a TGI (HCC-2998 colon) of over 100 µM, a TGI (HCT-116 colon) of over 100 µM and a TGI (MALME-3M melanoma) of over 100 µM. The TGI (NCI-H460 lung) was over 100 µM, the TGI (NCI-H522 lung) was over 100 µM and the TGI (OVCAR-3 ovarian) was over 100 µM. It also gave a TGI (OVCAR-8 ovarian) of over 100 µM, a TGI (RXF 393 renal) of over 100 µM and a TGI (SNB-75 CNS) of over 100 µM. It also gave a TGI (T-47D breast) of over 100 µM.

In the case of `CCOc1ccc(N=NC2C(=O)N(C(=O)CC(=O)Nc3ccccc3)N=C2C)cc1` (stereo not given), the TGI (HCC-2998 colon) was over 100 µM, the TGI (HCT-116 colon) was over 100 µM and the TGI (MALME-3M melanoma) was over 100 µM. For the same compound, the TGI (NCI-H460 lung) was over 100 µM, the TGI (NCI-H522 lung) was over 100 µM and the TGI (OVCAR-3 ovarian) was over 100 µM. The TGI (OVCAR-8 ovarian) was over 100 µM, the TGI (RXF 393 renal) was over 100 µM and the TGI (SNB-75 CNS) was over 100 µM. For the same compound, the TGI (T-47D breast) was over 100 µM.

Compound `CC(C)CC(NC(=O)OC(C)(C)C)C(=O)NC(CC(=O)OCc1ccccc1)C(=O)OCc1ccccc1` (stereo not drawn) (Boc-Leu-Asp(OBn)-OBn; configuration not given here) has a TGI (HCC-2998 colon) of 56.8 µM, a TGI (HCT-116 colon) of over 100 µM and a TGI (MALME-3M melanoma) of over 100 µM. It also gave a TGI (NCI-H460 lung) of over 100 µM, a TGI (NCI-H522 lung) of 79.2 µM and a TGI (OVCAR-3 ovarian) of 49.6 µM. It also gave a TGI (OVCAR-8 ovarian) of over 100 µM, a TGI (RXF 393 renal) of 90.5 µM and a TGI (SNB-75 CNS) of over 100 µM. The TGI (T-47D breast) was over 100 µM.

`O=S(=O)(O)c1cccc2cccc(N=Nc3c(O)ccc4ccccc34)c12` gave a TGI (HCC-2998 colon) of over 100 µM, a TGI (HCT-116 colon) of over 100 µM and a TGI (MALME-3M melanoma) of over 100 µM. For the same compound, the TGI (NCI-H460 lung) was over 100 µM, the TGI (NCI-H522 lung) was over 100 µM and the TGI (OVCAR-3 ovarian) was over 100 µM. For the same compound, the TGI (OVCAR-8 ovarian) was over 100 µM, the TGI (RXF 393 renal) was over 100 µM and the TGI (SNB-75 CNS) was over 100 µM. It also gave a TGI (T-47D breast) of over 100 µM.

Work on `CC(=O)NC1=C(NCCCl)C(=O)c2ccccc2C1=O` yielded a TGI (HCC-2998 colon) of over 100 µM, a TGI (HCT-116 colon) of 48.1 µM and a TGI (MALME-3M melanoma) of 27.1 µM. It also gave a TGI (NCI-H460 lung) of over 100 µM, a TGI (NCI-H522 lung) of 59.3 µM and a TGI (OVCAR-3 ovarian) of over 100 µM. It also gave a TGI (OVCAR-8 ovarian) of 52.4 µM, a TGI (RXF 393 renal) of 69.8 µM and a TGI (SNB-75 CNS) of over 100 µM. It also gave a TGI (T-47D breast) of 84.1 µM.

Work on `CCOC(=O)NNC(=O)NCc1ccccc1CNC(=O)NNC(=O)OCC` yielded a TGI (HCC-2998 colon) of over 100 µM, a TGI (HCT-116 colon) of over 100 µM and a TGI (MALME-3M melanoma) of over 100 µM. For the same compound, the TGI (NCI-H460 lung) was over 100 µM, the TGI (NCI-H522 lung) was over 100 µM and the TGI (OVCAR-3 ovarian) was over 100 µM. The TGI (OVCAR-8 ovarian) was over 100 µM, the TGI (RXF 393 renal) was over 100 µM and the TGI (SNB-75 CNS) was over 100 µM. It also gave a TGI (T-47D breast) of over 100 µM.

For `Cc1ccc(S(=O)(=O)[C@@H](Cl)[C@H]2N=C(Cl)NN=C2c2ccccc2)cc1`, the TGI (HCC-2998 colon) was over 100 µM, the TGI (HCT-116 colon) was over 100 µM and the TGI (MALME-3M melanoma) was 41.7 µM. For the same compound, the TGI (NCI-H460 lung) was over 100 µM, the TGI (NCI-H522 lung) was 35.9 µM and the TGI (OVCAR-3 ovarian) was 31.3 µM. The TGI (OVCAR-8 ovarian) was 44.6 µM, the TGI (RXF 393 renal) was 37.3 µM and the TGI (SNB-75 CNS) was 97.4 µM. For the same compound, the TGI (T-47D breast) was over 100 µM.

`CN(C(=O)c1ccc2c(c1)sc1c(=O)n(C)c3ccccc3c12)c1ccccc1` was tested, and the TGI (HCC-2998 colon) was over 100 µM, the TGI (HCT-116 colon) was over 100 µM and the TGI (MALME-3M melanoma) was over 100 µM. For the same compound, the TGI (NCI-H460 lung) was over 100 µM, the TGI (NCI-H522 lung) was over 100 µM and the TGI (OVCAR-3 ovarian) was over 100 µM. It also gave a TGI (OVCAR-8 ovarian) of over 100 µM, a TGI (RXF 393 renal) of over 100 µM and a TGI (SNB-75 CNS) of over 100 µM. It also gave a TGI (T-47D breast) of over 100 µM.

In the case of `CCOC(=O)C(NC(=O)CC)(Nc1ccc(S(=O)(=O)Nc2onc(C)c2C)cc1)C(F)(F)F` (stereo not given), the TGI (HCC-2998 colon) was over 100 µM, the TGI (HCT-116 colon) was over 100 µM and the TGI (MALME-3M melanoma) was over 100 µM. It also gave a TGI (NCI-H460 lung) of over 100 µM, a TGI (NCI-H522 lung) of over 100 µM and a TGI (OVCAR-3 ovarian) of over 100 µM. The TGI (OVCAR-8 ovarian) was over 100 µM, the TGI (RXF 393 renal) was over 100 µM and the TGI (SNB-75 CNS) was over 100 µM. For the same compound, the TGI (T-47D breast) was over 100 µM.
